Laboratory results taken from patent publication US5100907A, “Hydantoin esters” (Lonza, Inc., priority 1990, dated 1992).

Key:
Pseudomonas aeruginosa = assay: Antimicrobial study against Pseudomonas aeruginosa (gram-negative bacteria); type: cell-based; details: methylolated C8/10 10,800 ppm, methylolated lauric 11,400 ppm, DMDMH 3,000 ppm, others 14,700 ppm
Experimental: The antimicrobial properties of typical esters (I) and (Ia) were tested by minimum inhibitory concentration (MIC) tests, along with certain known substances, against […] strains of organisms: a mold, Aspergillus niger; a gram-positive bacteria, Staphylococcus aureus; and two gram-negative bacteria, Escherichia coli and Pseudomonas aeruginosa. […] These tests were used to determine any effect on biocidal activity of the varying chain length of the ester.
The known substances, on which identical tests were also performed, included the biocide, dimethyloldimethylhydantoin or DMDMH (iv), and a series of three surfactants, i.e., the three common emulsifiers, sodium lauryl sulfate (SLS); ethylene glycol distearate (EGDS), in the form of the commercial product PEGOSPERSE 50 DS (Lonza Inc.); and polyoxyethylene 20 sorbitan monoleate (POE 20 SMO), in the form of the commercial product GLYCOSPERSE 0 20 (Lonza Inc.).
The tests entailed contaminating a preexisting micro-colony with a known quantity (ppm, concentration) of test material. Each colony was then examined periodically over a one week period. […] A test was deemed non-efficacious when there was no decrease in colony size. In an effort to avoid any possible solvent effect, the micro-study was conducted in a totally aqueous solvent system without use of any other solvent.

[1] = Physical properties of methylolated MHEDMH esters (I): viscosity; type: physicochemical; details: at 25° C.

Row | Structure (SMILES) | Colony Count (Pseudomonas aeruginosa; Day 0) | Colony Count (Pseudomonas aeruginosa; Day 1) | Colony Count (Pseudomonas aeruginosa; Day 2) | Colony Count (Pseudomonas aeruginosa; Day 3) | Colony Count (Pseudomonas aeruginosa; Day 7) | Viscosity [1] [cts]
1 | CCCCCCCCCCCC(=O)OCCN1C(=O)N(CO)C(=O)C1(C)C [Methylolated Lauric Ester, 2-(3-hydroxymethyl-5,5-dimethyl-1,3-diazacyclopentane-2,4-dion-1-yl)-ethylester of lauric acid] | TNC | < 0.01 × 1,000 | < 0.01 × 1,000 | < 0.01 × 1,000 | < 0.01 × 1,000 | –
2 | CCCCCCCC/C=C\CCCCCCCC(=O)OCCN1C(=O)N(CO)C(=O)C1(C)C [Methylolated Oleic Ester, 2-(3-hydroxymethyl-5,5-dimethyl-1,3-diazacyclopentane-2,4-dion-1-yl)-ethylester of oleic acid] | TNC | < 0.01 × 1,000 | < 0.01 × 1,000 | < 0.01 × 1,000 | < 0.01 × 1,000 | 501
